Measurements reported in patent US20040152670A1, “Novel aminoindanes” (priority 1999, published 2004).
Like-named read-outs stand apart in the source and are kept apart here.

Legend:
[1] = test system: Group I metabotropic glutamate receptors (mGluRs); assay: Phosphatidylinositol assay in neonatal rat tissue slices (inositol phosphate accumulation); type: cell-based, Sprague Dawley rat; conditions: for Group I Agonist: increase in intracellular free inositol phosphate accumulation; for Group I Agonist / Group I Antagonist: Yes/No; for Group I Antagonist: inhibits the inositol phosphate accumulation induced by ACPD; for EC50: inhibition of the inositol phosphate accumulation induced by ACPD, read-out: Group I Antagonist EC50
Description: Briefly, cross-chopped slices are prepared from neonatal Sprague Dawley rat tissue (age: p7-p14). The slices are pre-labelled with [3H] myo-inositol. Following pre-labelling, the slices are incubated with the test drugs and standard (known Group I agonists i.e. ACPD) for a period of 45 minutes. The incubation is terminated by the addition of chloroform/methanol/HCl (100:200:2). The resulting mixture is separated into two phases by the addition of chloroform and distilled water. The aqueous fraction is applied to ion exchange columns, and inositol phosphates are eluted using 800 mM Ammonium Formate/100 mM Formic Acid. The eluent is then analyzed using liquid scintillation counting. The amount of inositol phosphate accumulation is expressed as a percentage of that induced by ACPD. Group I metabotropic glutamate receptors (mGluRs) are positively coupled on inositol phosphate metabolism. Agonists at these receptors lead to an increase in intracellular free inositol phosphates, while antagonists inhibit the increase in intracellular free inositol phosphate induced by standard agonists (i.e. ACPD). Cross-chopped slices were prepared from neonatal Sprague Dawley rat tissue (age: p7-p14). The slices were pre-labelled with [^3H] myo-inositol. Following pre-labelling, the slices were incubated with the test compounds and standard (known Group I agonists i.e. ACPD) for a period of 45 minutes. The incubation was terminated by the addition of chloroform/methanol/HCl (100:200:2). The resulting mixture was separated into two phases by the addition of chloroform and distilled water. The aqueous fraction was applied to ion exchange columns, and inositol phosphates were eluted using 800 mM Ammonium Formate/100 mM Formic Acid. The eluent was then analyzed using liquid scintillation counting. The amount of inositol phosphate accumulation was expressed as a percentage of that induced by ACPD. If the drugs cause an increase in intracellular free inositol phosphate accumulation, they are considered to be Group I agonists. […]

[2] = test system: Group II/III metabotropic glutamate receptors (mGluRs); assay: Cyclic AMP assay in rat cortical slices (forskolin-induced cyclic AMP accumulation); type: cell-based, Sprague Dawley rat; conditions: for Group II/III Agonist: inhibits forskolin-induced cyclic AMP accumulation; for Group II/III Agonist / Group II/III Antagonist: Yes/No; for Group II/III Antagonist: inhibits the glutamate-caused decrease in forskolin-induced cyclic AMP accumulation
Description: The assay of cyclic AMP formation can be performed as described previously (Tovey el al., Clinica Chimica Acta, 56, 221-234, 1974). The assay can be modelled on the cyclic AMP assay kit available from Amersham, which in turn, is based on the assay created by Tovey el al. Briefly, samples are prepared from Sprague Dawley rat (225-250 g) cortical slices. Slices are incubated with the drug, and then challenged with forskolin to induce cyclic AMP release. Following termination of the reaction by boiling, the slices are homogenized and centrifuged. Samples of supernatant are then incubated for 2-3 hours with a known quantity of [^3H]cAMP and a binding protein. When the incubation is complete, the bound cyclic AMP is separated from the free cyclic AMP by centrifugation with charcoal. The resulting supernatant (containing free cyclic AMP) is then analyzed by liquid scintillation counting. The amount of unbound cyclic AMP can be calculated from a standard curve previously determined with various samples of free cyclic AMP. Group II/III metabotropic glutamate receptors (mGluRs) are negatively coupled to adenylate cyclase, and agonists of these receptors lead to a decrease in intracellular cyclic AMP accumulation. The assay has been modeled on the cyclic AMP assay kit available from Amersham. This kit, in turn, is based on the assay created by Tovey et al. (1974). Briefly, the samples were prepared from Sprague Dawley rat (225-250 g) cortical slices. Slices were incubated with the test compound (drug), and then challenged with forskolin to induce cyclic AMP release. Following termination of the reaction by boiling, the slices were homogenized and centrifuged. Samples of supernatant were then incubated for 2-3 hours with a known quantity of [^3H]cAMP and a binding protein. When the incubation was complete, the bound cyclic AMP was separated from the free cyclic AMP by centrifugation with charcoal. The resulting supernatant (containing free cyclic AMP) was then analyzed by liquid scintillation counting. The amount of unbound cyclic AMP was calculated from a standard curve previously determined with various samples of free cyclic AMP. If the drugs tested inhibit forskolin-induced cyclic AMP accumulation, they are considered to be Group II/III agonists. Conversely, if they inhibit the decrease in forskolin-induced cyclic AMP accumulation caused by glutamate, they are considered to be Group II/III antagonists.

[3] = biological target: T1, mGluR1α receptor (Rattus norvegicus, UniProt P23385); assay: PI hydrolysis antagonist assay in Chinese hamster ovary cell lines expressing cloned mGluR1α; type: cell-based; conditions: CHO cells expressing cloned mGluR1α; compound at 5 mM; 10 µM (L)-glutamic acid; FIG. 1
T1 construct: expressed in transfected cells; host or cells: Chinese hamster ovary (CHO) cells
Description: The Chinese hamster ovary cell lines expressing mGluR1α, mGlu R2 and mGluR4αreceptors have been described previously (Amarori and Nakanishi, Neuron 8, 757-765, 1992; Tanabe et al., Neuron 8, 169-179, 1992, and J. Neurochem. 63, 2038-2047, 1993). They are maintained at 37° C. in a humidified 5% CO2 incubator in Dubecco's Modified Eagle Medium (DMEM) containing a reduced concentration of(S)-glutamine (2 mM) and are supplemented with 1% proline, penicillin (100 U/mL), streptomycin ([…]) and 10% dialyzed fetal calf serum (all GIBCO, Paisley). Two days before assay 1.8×10^6 cells are evenly distributed into the wells of 24 well plates.
Phosphatidylinositol (PI) hydrolysis can be measured as described previously (Hayashi et al., Nature 366, 687-690,1992, and J. Neuroscience 14, 3370-3377, 1994). Briefly, the cells are labeled with [^3H]inositol (2 μCi/mL) 24 h prior to the assay. For agonist assays, the cells are incubated with test compound dissolved in phosphate-buffered saline (PBS)-LiC] for 20 min, and agonist activity is determined from the level of ^3H-labeled mono-, bis- and tris-inositol phosphates generated, as measured following ion-exchange chromatography, compared with the level generated in the absence of the test compound. […] The antagonist activity is then determined as the inhibitory effect of the (S)-Glu mediated response. […]

[4] = inhibition of the glutamate-caused decrease in forskolin-induced cyclic AMP accumulation, read-out: Group II/III Antagonist EC50
[5] = inhibition of forskolin-induced cyclic AMP accumulation, read-out: Group II/III Agonist EC50

T1 sequence (P23385 19-1199): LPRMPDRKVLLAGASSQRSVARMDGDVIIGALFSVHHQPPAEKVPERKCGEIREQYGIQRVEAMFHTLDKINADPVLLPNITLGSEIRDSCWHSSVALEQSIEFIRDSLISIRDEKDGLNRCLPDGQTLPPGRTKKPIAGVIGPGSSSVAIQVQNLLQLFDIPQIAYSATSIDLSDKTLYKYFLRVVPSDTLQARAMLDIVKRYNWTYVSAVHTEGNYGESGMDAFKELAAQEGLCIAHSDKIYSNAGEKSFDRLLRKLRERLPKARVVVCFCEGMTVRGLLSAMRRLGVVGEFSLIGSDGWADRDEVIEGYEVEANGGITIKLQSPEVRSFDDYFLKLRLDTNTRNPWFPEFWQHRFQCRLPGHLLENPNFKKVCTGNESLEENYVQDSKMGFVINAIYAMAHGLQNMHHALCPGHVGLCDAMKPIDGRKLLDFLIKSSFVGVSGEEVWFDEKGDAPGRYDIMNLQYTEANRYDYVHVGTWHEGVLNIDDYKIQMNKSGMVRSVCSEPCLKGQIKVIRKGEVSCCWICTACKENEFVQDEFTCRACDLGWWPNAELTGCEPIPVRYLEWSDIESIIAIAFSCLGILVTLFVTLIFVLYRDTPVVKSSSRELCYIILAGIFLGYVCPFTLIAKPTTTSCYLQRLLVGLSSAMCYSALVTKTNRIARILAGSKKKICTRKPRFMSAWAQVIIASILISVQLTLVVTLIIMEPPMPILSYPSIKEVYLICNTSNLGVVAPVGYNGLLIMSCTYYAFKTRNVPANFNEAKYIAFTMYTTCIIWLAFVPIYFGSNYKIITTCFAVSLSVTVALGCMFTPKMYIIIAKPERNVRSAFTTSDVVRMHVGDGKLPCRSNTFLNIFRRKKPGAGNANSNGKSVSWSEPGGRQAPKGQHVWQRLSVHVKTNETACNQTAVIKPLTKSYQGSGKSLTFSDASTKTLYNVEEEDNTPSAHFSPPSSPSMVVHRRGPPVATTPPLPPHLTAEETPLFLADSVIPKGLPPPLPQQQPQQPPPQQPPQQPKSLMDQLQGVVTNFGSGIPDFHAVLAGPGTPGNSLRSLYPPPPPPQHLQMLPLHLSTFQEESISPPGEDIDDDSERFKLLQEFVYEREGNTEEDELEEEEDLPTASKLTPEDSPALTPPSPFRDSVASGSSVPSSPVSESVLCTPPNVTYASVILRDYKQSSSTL

Group I Agonist [1] | Group I Antagonist [1] | EC50 [2, 4] [nM] | Group II/III Agonist [2] | Group II/III Antagonist [2] | EC50 [1] [nM] | EC50 [2, 5] [nM] | Structure (SMILES) | antagonist activity: block of the increase in PI hydrolysis by (L)-glutamic acid at the mGluR1α receptor [3]
No | No | 610 | No | Yes | – | – | NC(C(=O)O)C1CC(C(=O)O)c2ccccc21 (centres unmarked) [Compound 23, 1-[2-amino]-3-carboxyindaneacetic acid] | –
– | – | – | – | – | 1.3 | 990 | N[C@]1(C(=O)O)C[C@@H](CC(=O)O)c2ccccc21 (relative stereo) [Compound 13, Trans-1-amino-1-carboxyindane-3-acetic acid] | –
No | Yes | 26 | Yes | Yes | 14000 | 460 | NC(C(=O)O)C1c2ccccc2CC1CC(=O)O (centres unmarked) [Compound 18, 1-[2-amino]-2-indanediacetic acid] | –
– | – | 34 | – | – | 1100 | – | N[C@]1(C(=O)O)c2ccccc2C[C@H]1CC(=O)O (relative stereo) [Compound 9, Trans-1-amino-1-carboxyindane-2-acetic acid] | –
– | – | – | – | – | – | 2100 | N[C@@]1(C(=O)O)C[C@H](C(=O)O)c2ccccc21 (stereo in doubt) [Compound 4b, Cis-1-aminoindane-1,3-dicarboxylic acid] | –

Structure (SMILES) | Group I Agonist [1] | Group I Antagonist [1] | EC50 [2, 4] [nM] | Group II/III Agonist [2] | Group II/III Antagonist [2] | EC50 [1] [nM] | EC50 [2, 5] [nM] | antagonist activity: block of the increase in PI hydrolysis by (L)-glutamic acid at the mGluR1α receptor [3]
N[C@]1(C(=O)O)C[C@H](C(=O)O)c2ccccc21 [Compound 4a, Trans-1-aminoaindane-1,3-dicarboxylic acid] | No | Yes | – | No | No | 480 | – | effectively blocked
